Results from patent publication US7977372B2, “Ortho aminoamides for the treatment of cancer” (Hoffmann-La Roche Inc., priority 2009, dated 2011).

How the values were obtained:
[1] = test system: histone deacetylase (HeLa nuclear extract); assay: HeLa extract HDAC fluorometric assay; format: biochemical; conditions: compound at 30 micromolar; relative to SNDX-275
Method: Novel compounds were tested for their ability to inhibit histone deacetylase using an in vitro deacetylation assay. The enzyme source for this assay was HeLa nuclear extract. The substrate consisted of a commercial product containing an acetylated lysine side chain (both HeLa extract and substrate are available commercially from BIOMOL Research Laboratories, Inc., Plymouth Meeting, Pa.). After deacetylation of the substrate by incubation with HeLa nuclear extract, subsequent exposure to a developing reagent produces a fluorophore that is directly proportional to the level of deacetylation. Using the substrate concentration at the Km for the HeLa nuclear extract, the deacetylation assay was performed in the presence of novel compounds at 30 micromolar and the percent enzyme inhibition relative to a known reference HDAC inhibitor (SNDX-275) was determined. […] Inhibitory activity for specific representative compounds can be found in Table 19.

[2] = test system: SGC-7901 gastric cancer cells; assay: Growth inhibition of cancer cell lines (MTS / WST assay), SGC-7901; format: cell-based; conditions: for IC90: read-out: SGC GI90
Method: (§1) The novel compounds of the present invention were tested for their ability to inhibit growth of various cancer cell lines using in vitro growth inhibition assays described below.
(§2) Cells were seeded in 96-well culture plates (200 microliters/well at different seeding concentrations depending on cell type) and incubated overnight at 37 degrees Celsius in 5% CO2. After adding compound dilutions to the cells (DMSO concentration kept below 0.5%), the cells were incubated at 37 degrees Celsius in 5% CO2 for 72 hours. The effects on proliferation were determined by addition of MTS reagent (Promega) according to the manufacturer's instruction, followed by incubation for 2 hours at 37 degrees Celsius in 5% CO2, and finally recording the absorbance at 490 nm using an ELISA plate reader.
(§3) Similar to MTS assay except that the developer is the CCK-8 reagent (Dojindo) and the plate reader is set to 450 nm absorbance.
(§4) GI50 and GI90 values against SGC-7901 gastric cancer cells and SMMC-7721 liver cancer cells for specific representative compounds can be found in Table 19.

[3] = test system: SMMC-7721 liver cancer cells; assay: Growth inhibition of cancer cell lines (MTS / WST assay), SMMC-7721; format: cell-based; conditions: for IC90: read-out: SMMC GI90
Method: as §1, §2, §3, §4

Row | HD RP30 (relative inhibitory potency compared with SNDX-275) [1] | GI50 ([2]; Homo sapiens, SGC-7901, 72 h) [nM] | IC90 ([2]; Homo sapiens, SGC-7901, 72 h) [nM] | GI50 ([3]; Homo sapiens, SMMC-7721, 72 h) [nM] | IC90 ([3]; Homo sapiens, SMMC-7721, 72 h) [nM] | GI50 ([2]; 72 hours) [nM] | SGC GI90 ([2]; 72 hours) [nM] | GI50 ([3]; 72 hours) [nM] | SMMC GI90 ([3]; 72 hours) [nM] | Structure (SMILES)
1 | 1.61 | 390 | 1700 | 650 | 1950 | – | – | – | – | CN1CC(C(=O)Nc2ccc(F)cc2)C(c2ccc(/C=C/C(=O)Nc3ccccc3N)cc2)C1 (racemic) [Example 5, rac-(trans-3,4)-4-{4-[2-(2-Amino-phenylcarbamoyl)-vinyl]-phenyl}-1-methyl-pyrrolidine-3-carboxylic acid (4-fluoro-phenyl)-amide]
2 | 1.09 | 420 | 1380 | 910 | 2630 | – | – | – | – | Nc1ccccc1NC(=O)/C=C/c1ccc(C2CN(CCF)CC2C(=O)Nc2ccc(Cl)cc2)cc1 (racemic) [Example 21, rac-(trans-3,4)-4-{4-[2-(2-Amino-phenylcarbamoyl)-vinyl]-phenyl}-1-(2-fluoro-ethyl)-pyrrolidine-3-carboxylic acid (4-chloro-phenyl)-amide]
3 | 1.38 | 290 | 1040 | 640 | 1530 | – | – | – | – | CC(C)(CO)N1CC(C(=O)Nc2ccc(Cl)cc2)C(c2ccc(/C=C/C(=O)Nc3ccccc3N)cc2)C1 (racemic) [Example 26, rac-(trans-3,4)-4-{4-[2-(2-Amino-phenylcarbamoyl)-vinyl]-phenyl}-1-(2-hydroxy-1,1-dimethyl-ethyl)-pyrrolidine-3-carboxylic acid (4-chloro-phenyl)-amide]
4 | 1.75 | 490 | 1530 | 960 | 3290 | – | – | – | – | CC(C)(C)N1CC(C(=O)Nc2ccc(Cl)cc2)C(c2ccc(/C=C/C(=O)Nc3ccccc3N)cc2)C1 (racemic) [Example 36, rac-(trans-3,4)-4-{4-[2-(2-Amino-phenylcarbamoyl)-vinyl]-phenyl}-1-tert-butyl-pyrrolidine-3-carboxylic acid (4-chloro-phenyl)-amide]
5 | 1.73 | 380 | 1130 | 660 | 1980 | – | – | – | – | CN1C[C@@H](C(=O)Nc2ccc(Cl)cc2)[C@H](c2ccc(/C=C/C(=O)Nc3ccccc3N)cc2)C1 [Example 5-2]
6 | 1.95 | 310 | 1140 | 780 | 3960 | – | – | – | – | CN1C[C@@H](C(=O)Nc2ccc(F)cc2)[C@H](c2ccc(/C=C/C(=O)Nc3ccccc3N)cc2)C1 [Example 5-8]
7 | 1.63 | 490 | 1790 | 670 | 1750 | – | – | – | – | Cc1ccc(NC(=O)C2CN(C)CC2c2ccc(/C=C/C(=O)Nc3ccccc3N)cc2)cc1 (stereo not shown) [Example 5-19]
8 | 1.62 | 500 | 1300 | 770 | 1620 | – | – | – | – | CN1CC(C(=O)Nc2ccc(Br)cc2)C(c2ccc(/C=C/C(=O)Nc3ccccc3N)cc2)C1 (stereo not shown) [Example 5-20]
9 | 1.61 | 280 | 1120 | 570 | 1600 | – | – | – | – | Cc1cc(NC(=O)C2CN(C)CC2c2ccc(/C=C/C(=O)Nc3ccccc3N)cc2)ccc1F (stereo not shown) [Example 5-27]
10 | 1.70 | 310 | 1730 | 760 | 2010 | – | – | – | – | Cc1cccc(NC(=O)C2CN(C)CC2c2ccc(/C=C/C(=O)Nc3ccccc3N)cc2)c1 (stereo not shown) [Example 5-28]
11 | 1.65 | 320 | 1040 | 640 | 1390 | – | – | – | – | Cc1cc(NC(=O)C2CN(C)CC2c2ccc(/C=C/C(=O)Nc3ccccc3N)cc2)ccc1Cl (stereo not shown) [Example 5-29]
12 | 1.97 | 340 | 1560 | 710 | 2340 | – | – | – | – | CN1CC(C(=O)Nc2ccc(F)c(Cl)c2)C(c2ccc(/C=C/C(=O)Nc3ccccc3N)cc2)C1 (stereo not shown) [Example 5-30]
13 | 1.58 | 410 | 2040 | 710 | 2420 | – | – | – | – | CN1CC(C(=O)Nc2ccccc2)C(c2ccc(/C=C/C(=O)Nc3ccccc3N)cc2)C1 (stereo not shown) [Example 5-32]
14 | 1.49 | 420 | 1620 | 870 | 2210 | – | – | – | – | COc1ccc(NC(=O)C2CN(C)CC2c2ccc(/C=C/C(=O)Nc3ccccc3N)cc2)cc1 (stereo not shown) [Example 5-33]
15 | 1.64 | 420 | 1990 | 700 | 1690 | – | – | – | – | CN1CC(c2ccc(/C=C/C(=O)Nc3ccccc3N)cc2)C(c2ncc(-c3ccccc3)[nH]2)C1 (stereo not shown) [Example 11-2]
16 | 1.62 | 320 | 1620 | 680 | 2200 | – | – | – | – | CN1CC(c2ccc(/C=C/C(=O)Nc3ccccc3N)cc2)C(c2nc3ccccc3[nH]2)C1 (stereo not shown) [Example 11-3]
17 | 1.70 | 370 | 1710 | 640 | 1810 | – | – | – | – | CN1CC(c2ccc(/C=C/C(=O)Nc3ccccc3N)cc2)C(c2nc3cc(Cl)ccc3[nH]2)C1 (stereo not shown) [Example 11-4]
18 | 1.79 | 350 | 1080 | 920 | 3040 | – | – | – | – | CN1CC(c2ccc(/C=C/C(=O)Nc3ccccc3N)cc2)C(c2nc3cc(F)ccc3[nH]2)C1 (stereo not shown) [Example 11-6]
19 | 1.36 | 410 | 1170 | 750 | 1870 | – | – | – | – | Nc1ccccc1NC(=O)/C=C/c1ccc(C2CN(C3CCOCC3)CC2C(=O)Nc2ccc(Cl)cc2)cc1 (stereo not shown) [Example 16-2]
20 | 1.51 | 290 | 1240 | 720 | 2020 | – | – | – | – | CC(C)N1CC(C(=O)Nc2ccc(F)cc2)C(c2ccc(/C=C/C(=O)Nc3ccccc3N)cc2)C1 (stereo not shown) [Example 16-15]
21 | 2.03 | 340 | 890 | 700 | 1620 | – | – | – | – | CC(C)N1CC(C(=O)Nc2ccc(Br)cc2)C(c2ccc(/C=C/C(=O)Nc3ccccc3N)cc2)C1 (stereo not shown) [Example 16-16]
22 | 1.53 | 440 | 1890 | 900 | 2450 | – | – | – | – | CC(C)N1CC(C(=O)Nc2ccc(Cl)cc2)C(c2ccc(/C=C/C(=O)Nc3ccccc3N)cc2)C1 (stereo not shown) [Example 16-17]
23 | 1.90 | – | – | – | – | 450 | 1230 | 830 | 2960 | Nc1ccccc1NC(=O)/C=C/c1ccc(C2CN(C3CCOCC3)CC2C(=O)Nc2ccc(Cl)cc2)cc1 (stereo not shown) [Example 16-20]
24 | 1.48 | 400 | 1210 | 800 | 2520 | – | – | – | – | CCN1CC(C(=O)Nc2ccc(Cl)cc2)C(c2ccc(/C=C/C(=O)Nc3ccccc3N)cc2)C1 (stereo not shown) [Example 21-6]
25 | 1.47 | 600 | 2950 | 1340 | 3320 | – | – | – | – | COCCN1CC(C(=O)Nc2ccc(Cl)cc2)C(c2ccc(/C=C/C(=O)Nc3ccccc3N)cc2)C1 (stereo not shown) [Example 21-15]
26 | 1.48 | 540 | 1380 | 760 | 2090 | – | – | – | – | CC(C)(O)CN1CC(C(=O)Nc2ccc(Cl)cc2)C(c2ccc(/C=C/C(=O)Nc3ccccc3N)cc2)C1 (stereo not shown) [Example 31-8]
27 | 1.70 | 310 | 1080 | 650 | 1840 | – | – | – | – | CC(C)(C)N1CC(C(=O)Nc2ccc(F)cc2)C(c2ccc(/C=C/C(=O)Nc3ccccc3N)cc2)C1 (stereo not shown) [Example 36-5]
28 | 1.36 | 490 | 2010 | 1440 | 4520 | – | – | – | – | CN1CC(C(=O)Nc2ccc(F)cc2)C(c2ccc(/C=C/C(=O)Nc3ccccc3N)nc2)C1 (stereo not shown) [Example 73-2]
29 | 1.84 | 470 | 2400 | 1200 | 3400 | – | – | – | – | CN1CC(C(=O)Nc2ccc(F)cc2)C(c2ccc(/C=C/C(=O)Nc3ccccc3N)cc2F)C1 (stereo not shown) [Example 85-4]
